What was measured:
[1] = Topical administration via coronary perfusion/infusion catheter on arteriosclerotic lesion in the carotid artery, gamma camera measurement of activity at the lesion; type: in vivo, white New Zealand rabbit; conditions: for % of the dose at the lesion (activity at the lesion as proportion of total activity in the animal): Example 1, rabbit no. 1708, 0.48 mCi in 0.85 ml; for % of the dose at the lesion (activity in the lesion as proportion of total activity in the animal): Example 2, rabbit no. 1856, 1.91 mCi in 1.0 ml
Procedure: The test animal, a white New Zealand rabbit (internal animal identification no.: 1708, male, 3.7 kg of body weight), was prepared 4 weeks before the actual administration experiment:
Under anesthesia (Rompun/Ketavet 1:2, 1 ml/kg of body weight, i.m. administration), the endothelium was damaged with a 2F Fogarthy balloon catheter in the arteria carotis dextra (balloon denudation). Then, the animal received a special diet with an addition of 0.2% cholesterol. The test animal developed an arteriosclerotic lesion on the balloon-denuded spot created by this pretreatment.
Topical administration of HMPAO that was labeled with technetium 99m was carried out on the anesthetized test animal (anesthesia type s.o.) via a coronary perfusion/infusion catheter (dispatch 3.0, Xtra slippery coating, manufacturer: Boston Scientific Corporation, Ratingen) directly on the lesion in the carotid artery. The radioactive dose of 0.48 mCi (=17.76 MBq) was administered in a volume of 0.85 ml.
During the entire experiment, the test animal was under a gamma camera (Elscint SP4 HR) to measure the dispersion of radioactivity in the body. The activity at the lesion was set as a proportion of the total activity (measured at this time in the animal). In the case of this test animal, there was found:
The test animal, a white New Zealand rabbit (internal animal identification no.: 1856, male, 3.3 kg of body weight), was prepared 4 weeks before the actual administration experiment as follows:
The topical administration of the HMPAO that was labeled with technetium 99m was carried out on the anesthetized test animal (anesthesia type s.o.) via a coronary perfusion/infusion catheter (dispatch 3.0, Xtra slippery coating, manufacturer: Boston Scientific Corporation, Ratingen) directly on the lesion in the carotid artery. The radioactive dose of 1.91 mCi (=70.67 MBq) was administered in a volume of 1.0 ml (flushing with 0.3 ml of physiological saline solution).
During the entire experiment, the test animal was under a gamma camera (Elscint SP4 HR) to measure the dispersion of radioactivity in the body. The activity in the lesion was set as a proportion of the total activity (measured at this time in the animal).

[2] = Topical administration via microperforated balloon catheter after balloon denudation of the infraranal aorta, gamma camera measurement of activity in the lesion; type: in vivo, white New Zealand rabbit
Procedure: The test animal was a white New Zealand rabbit (internal animal identification no.: 1584, male, 3.4 kg of body weight).
Under anesthesia (Rompun/Ketavet 1:2, 1 ml/kg of body weight, i.m. administration), the endothelium was damaged with a balloon catheter in the infraranal aorta (balloon denudation). Then, over a period of 5 minutes, technetium 99m-labeled HMPAO was administered to the test animal via a microperforated balloon catheter (4 mm Match-35 PTA, Schneider Company, FRG). The radioactive dose of 0.64 mCi (=23.68 MBq) was administered in a volume of 1 ml.
During the entire experiment, the test animal was under a gamma camera (Elscint SP4 HR) to measure the dispersion of radioactivity in the body. The activity in the lesion was set as a proportion of the total activity (measured at this time in the animal). In the case of this test animal, there was found:
The test animal was a white New Zealand rabbit (internal animal identification no.: 1587, male, 3.5 kg of body weight).
Under anesthesia (Rompun/Ketavet 1:2, 1 ml/kg of body weight, i.m. administration), the endothelium was damaged with a balloon catheter in the infraranal aorta (balloon denudation). Then, over a period of 5 minutes, technetium 99m-labeled HMPAO was administered to the test animal via a microperforated balloon catheter (4 mm Match-35 PTA, Schneider Company, FRG). The radioactive dose of 1.18 mCi (=43.66 MBq) was administered in a volume of 1 ml.
The test animal was a white New Zealand rabbit (internal animal identification no.: 1586, male, 3.3 kg of body weight).
Under anesthesia (Rompun/Ketavet 1:2, 1 ml/kg of body weight, i.m. administration), the endothelium was damaged with a balloon catheter in the infraranal aorta (balloon denudation). Then, over a period of 5 minutes, technetium 99m-labeled HMPAO was administered to the test animal via a microperforated balloon catheter (4 mm Match-35 PTA, Schneider Company, FRG). The radioactive dose of 0.45 mCi (=16.65 MBq) was administered in a volume of 1 ml.

## C/C(=N\O)C(C)NCC(C)(C)CNC(C)/C(C)=N/O (stereo not drawn) [Example 99mTc-HMPAO, metal not drawn]
[1]; 5 minutes post administration
  % of the dose at the lesion (activity at the lesion as proportion of total activity in the animal): 55.38%
  % of the dose at the lesion (activity in the lesion as proportion of total activity in the animal): 40.74%
[1]; 4 hours post administration
  % of the dose at the lesion (activity at the lesion as proportion of total activity in the animal): 46.78%
  % of the dose at the lesion (activity in the lesion as proportion of total activity in the animal): 35.13%
[1]; 24 hours post administration
  % of the dose at the lesion (activity at the lesion as proportion of total activity in the animal): 21.45%
  % of the dose at the lesion (activity in the lesion as proportion of total activity in the animal): 23.69%
[2]; 5 minutes post administration, Example 3, rabbit no. 1584, 0.64 mCi in 1 ml
  % of the dose at the lesion (activity in the lesion as proportion of total activity in the animal): 38.45%
[2]; 5 minutes post administration, Example 4, rabbit no. 1587, 1.18 mCi in 1 ml
  % of the dose at the lesion (activity in the lesion as proportion of total activity in the animal): 37.06%
[2]; 5 minutes post administration, Example 5, rabbit no. 1586, 0.45 mCi in 1 ml
  % of the dose at the lesion (activity in the lesion as proportion of total activity in the animal): 45.56%
[2]; 4 hours post administration, Example 3, rabbit no. 1584, 0.64 mCi in 1 ml
  % of the dose at the lesion (activity in the lesion as proportion of total activity in the animal): 35.64%
[2]; 4 hours post administration, Example 4, rabbit no. 1587, 1.18 mCi in 1 ml
  % of the dose at the lesion (activity in the lesion as proportion of total activity in the animal): 32.03%
[2]; 4 hours post administration, Example 5, rabbit no. 1586, 0.45 mCi in 1 ml
  % of the dose at the lesion (activity in the lesion as proportion of total activity in the animal): 36.39%
[2]; 24 hours post administration, Example 3, rabbit no. 1584, 0.64 mCi in 1 ml
  % of the dose at the lesion (activity in the lesion as proportion of total activity in the animal): 16.63%
[2]; 24 hours post administration, Example 4, rabbit no. 1587, 1.18 mCi in 1 ml
  % of the dose at the lesion (activity in the lesion as proportion of total activity in the animal): 20.01%
[2]; 24 hours post administration, Example 5, rabbit no. 1586, 0.45 mCi in 1 ml
  % of the dose at the lesion (activity in the lesion as proportion of total activity in the animal): 15.24%
